Assay results reported in ChEMBL document CHEMBL1142398, “Chemical stability of the peroxide bond enables diversified synthesis of potent tetraoxane antimalarials” (J Med Chem, 2008).

Tests used:
Plasmodium falciparum [1] = test: microbe, parasite or virus in culture; details: D6
Description: Antimalarial activity against Plasmodium falciparum D6

Plasmodium falciparum [2] = test: microbe, parasite or virus in culture; details: W2
Description: Antimalarial activity against Plasmodium falciparum W2

[3] = Metabolic stability assessed as half life in human liver microsomes; assay type: ADME, Microsome
[4] = Metabolic stability assessed as half life in mouse liver microsomes; assay type: ADME, Microsome
Plasmodium falciparum [5] = test: microbe, parasite or virus in culture; details: TM91C235
Description: Antimalarial activity against multidrug-resistant Plasmodium falciparum TM91C235

Plasmodium berghei [6] = test: Antimalarial activity against Plasmodium berghei KBG173 infected CD1 mice (Mus musculus) on subcutaneous dose after 3-5 days; assay type: functional
Plasmodium berghei [7] = test: Antimalarial activity against Plasmodium berghei KBG173 infected CD1 mice (Mus musculus) at 300 mg/kg/day subcutaneous dose as survival time after 3-5 days; assay type: functional
Plasmodium berghei [8] = test: Antimalarial activity against Plasmodium berghei KBG173 infected CD1 mice (Mus musculus) at 150 mg/kg/day subcutaneous dose as survival time after 3-5 days; assay type: functional
Plasmodium berghei [9] = test: Antimalarial activity against Plasmodium berghei KBG173 infected CD1 mice (Mus musculus) at 37.5 mg/kg/day subcutaneous dose as survival time after 3-5 days; assay type: functional
Plasmodium berghei [10] = test: Antimalarial activity against Plasmodium berghei KBG173 infected CD1 mice (Mus musculus) at 9.3 mg/kg/day subcutaneous dose as survival time after 3-5 days; assay type: functional

CC(=O)O[C@H]1C[C@H]2[C@@H]([C@H](OC(C)=O)C[C@@H]3CC4(CC[C@@]32C)OOC2(CCCCC2)OO4)[C@@H]2CC[C@H]([C@H](C)CCC(=O)O)[C@@]12C
IC50 (Plasmodium falciparum [1]): 30.6 nM | IC50 (Plasmodium falciparum [2]): 19.2 nM

CC(=O)O[C@H]1C[C@H]2[C@@H]([C@H](OC(C)=O)C[C@@H]3CC4(CC[C@@]32C)OOC2(CCCCC2)OO4)[C@@H]2CC[C@H]([C@H](C)CCCNCCN(C)C)[C@@]12C
half-life [3]: > 60 min | half-life [4]: > 60 min | IC50 (Plasmodium falciparum [1]): 46.8 nM | IC90 (Plasmodium falciparum [1]): 110 nM | IC50 (Plasmodium falciparum [2]): 18.5 nM | IC90 (Plasmodium falciparum [2]): 65.4 nM | IC50 (Plasmodium falciparum [5]): 49.7 nM | IC90 (Plasmodium falciparum [5]): 88.1 nM

CCCNC(=O)C1CCC2(CC1)OOC1(CCCCC1)OO2
IC50 (Plasmodium falciparum [1]): 19.3 nM | IC90 (Plasmodium falciparum [1]): 49.2 nM | IC50 (Plasmodium falciparum [2]): 22 nM | IC90 (Plasmodium falciparum [2]): 44.5 nM | IC50 (Plasmodium falciparum [5]): 25.3 nM | IC90 (Plasmodium falciparum [5]): 53.9 nM

C1CCC(NCC2CCC3(CC2)OOC2(CCCCC2)OO3)CC1
MCD (Plasmodium berghei [6]): <=37.5 mg/kg/day | half-life [3]: 15.9 min | half-life [4]: 43.9 min | Survival (Plasmodium berghei [7]): >31 days | Survival (Plasmodium berghei [8]): 29 days | Survival (Plasmodium berghei [9]): 22.6 days | Survival (Plasmodium berghei [10]): 13.4 days | IC50 (Plasmodium falciparum [1]): 11.2 nM | IC90 (Plasmodium falciparum [1]): 14 nM | IC50 (Plasmodium falciparum [2]): 6.17 nM | IC90 (Plasmodium falciparum [2]): 17.7 nM | IC50 (Plasmodium falciparum [5]): 10.8 nM | IC90 (Plasmodium falciparum [5]): 13.9 nM

CC(C)NCC1CCC2(CC1)OOC1(CCCCC1)OO2
half-life [3]: 38.7 min | half-life [4]: 9.9 min | Survival (Plasmodium berghei [7]): 23.2 days | Survival (Plasmodium berghei [8]): 23.6 days | Survival (Plasmodium berghei [9]): 18.2 days | Survival (Plasmodium berghei [10]): 11.8 days | IC50 (Plasmodium falciparum [1]): 9.4 nM | IC90 (Plasmodium falciparum [1]): 14.5 nM | IC50 (Plasmodium falciparum [2]): 7.54 nM | IC90 (Plasmodium falciparum [2]): 22.9 nM | IC50 (Plasmodium falciparum [5]): 9.27 nM | IC90 (Plasmodium falciparum [5]): 16.7 nM

c1ccc(CNCC2CCC3(CC2)OOC2(CCCCC2)OO3)cc1
half-life [3]: 42 min | half-life [4]: 3.5 min | IC50 (Plasmodium falciparum [1]): 13.8 nM | IC90 (Plasmodium falciparum [1]): 34.5 nM | IC50 (Plasmodium falciparum [2]): 8.19 nM | IC90 (Plasmodium falciparum [2]): 20.6 nM | IC50 (Plasmodium falciparum [5]): 13.9 nM | IC90 (Plasmodium falciparum [5]): 39.5 nM

OCC1CCC2(CC1)OOC1(CCCCC1)OO2
IC50 (Plasmodium falciparum [1]): 15.2 nM | IC90 (Plasmodium falciparum [1]): 22.5 nM | IC50 (Plasmodium falciparum [2]): 6.54 nM | IC90 (Plasmodium falciparum [2]): 11.6 nM | IC50 (Plasmodium falciparum [5]): 12.6 nM | IC90 (Plasmodium falciparum [5]): 23.7 nM

CCCNCCC[C@@H](C)[C@H]1CC[C@H]2[C@@H]3[C@H](OC(C)=O)C[C@@H]4CC5(CC[C@]4(C)[C@H]3C[C@H](OC(C)=O)[C@]12C)OOC1(CCCCC1)OO5
half-life [3]: > 60 min | half-life [4]: > 60 min | IC50 (Plasmodium falciparum [1]): 24.1 nM | IC90 (Plasmodium falciparum [1]): 49.3 nM | IC50 (Plasmodium falciparum [2]): 11.1 nM | IC90 (Plasmodium falciparum [2]): 26.9 nM | IC50 (Plasmodium falciparum [5]): 20.8 nM | IC90 (Plasmodium falciparum [5]): 73.9 nM

NCC1CCC2(CC1)OOC1(CCCCC1)OO2
MCD (Plasmodium berghei [6]): <=37.5 mg/kg/day | Survival (Plasmodium berghei [7]): >31 days | Survival (Plasmodium berghei [8]): >31 days | Survival (Plasmodium berghei [9]): 24.6 days | Survival (Plasmodium berghei [10]): 16.6 days | IC50 (Plasmodium falciparum [1]): 12.8 nM | IC90 (Plasmodium falciparum [1]): 24.1 nM | IC50 (Plasmodium falciparum [2]): 7.79 nM | IC90 (Plasmodium falciparum [2]): 16 nM | IC50 (Plasmodium falciparum [5]): 19.8 nM | IC90 (Plasmodium falciparum [5]): 29 nM

CC(=O)O[C@H]1C[C@H]2[C@@H]([C@H](OC(C)=O)C[C@@H]3CC4(CC[C@@]32C)OOC2(CCCCC2)OO4)[C@@H]2CC[C@H]([C@H](C)CCCO)[C@@]12C
IC50 (Plasmodium falciparum [1]): 15.6 nM | IC90 (Plasmodium falciparum [1]): 28.7 nM | IC50 (Plasmodium falciparum [2]): 9.77 nM | IC90 (Plasmodium falciparum [2]): 24.2 nM | IC50 (Plasmodium falciparum [5]): 18.1 nM | IC90 (Plasmodium falciparum [5]): 27.2 nM
